# Data published in article PMC3170879 (Chemmedchem, 2011).
# Target: T1, steroid sulfatase (STS) (Homo sapiens, UniProt P08842)
# T1 sequence (P08842 22-583): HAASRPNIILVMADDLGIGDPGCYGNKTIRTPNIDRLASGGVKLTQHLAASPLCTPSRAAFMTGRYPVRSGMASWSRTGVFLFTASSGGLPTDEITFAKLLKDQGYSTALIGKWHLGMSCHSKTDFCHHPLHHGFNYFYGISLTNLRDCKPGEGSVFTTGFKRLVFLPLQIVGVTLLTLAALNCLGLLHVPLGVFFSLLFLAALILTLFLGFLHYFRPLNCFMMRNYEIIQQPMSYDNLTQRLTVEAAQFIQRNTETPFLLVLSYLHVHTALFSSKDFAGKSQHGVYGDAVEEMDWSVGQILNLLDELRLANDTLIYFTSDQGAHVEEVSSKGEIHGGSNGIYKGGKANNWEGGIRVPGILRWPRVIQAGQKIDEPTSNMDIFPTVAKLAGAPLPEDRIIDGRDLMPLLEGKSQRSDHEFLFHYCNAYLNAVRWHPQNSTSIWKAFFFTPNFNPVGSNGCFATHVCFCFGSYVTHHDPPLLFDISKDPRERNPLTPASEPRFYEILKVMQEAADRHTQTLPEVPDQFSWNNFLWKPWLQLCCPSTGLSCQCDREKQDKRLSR
# Assay: radiometric sulfatase assay, intact JEG-3 monolayer
# Type: cell-based
# Conditions: read-out: [drawing 5]; [6,7-3H]oestrone sulfate substrate, 1 h
smiles,measurement,value
"CN(C)S(=O)(=O)Oc1ccc(C(c2ccc(C#N)cc2)n2cncn2)cc1Br (racemic) [compound 42, 2-Bromo-4-((4-cyanophenyl)(1H-1,2,4-triazol-1-yl)methyl)phenyl dimethylsulfamate]",IC50,> 10 µM
